As a reminder, the ED50 is the dose at which the effect has come halfway, by size or by number of responders. By inhibition is commonly meant how much of the control response was suppressed. As usually defined, the pIC50 is the negative decadic logarithm of the IC50, by convention in mol/L. A lower pIC50 goes with a large IC50. As usually defined, the LD50 is the dose expected to kill half of the subjects tested.

pIC50: −log10 of the molar value. Like-named read-outs stand apart in the source and are kept apart here.

Results on two compounds are retold here after patent publication US8993575B2, “[1,3,4] oxadiazole derivative and application thereof” (Huazhong University of Science & Technology, priority 2011, dated 2015).

Series [1] concerns apomorphine induced clambering of mice. The experiment in a line: Apomorphine induced clambering assay of mice. The conditions noted are these: for ED50: Mus musculus, po, read-out: apomorphine induced clambering ED50; for improvement of apomorphine induced clambering symptoms (in words): compared to the model group.
Procedure: Apomorphine provided by Sigma Company was dissolved in 0.9% NaCl (containing 0.1% vitamin C) before use, and was freshly formulated before use.
Instruments: self-made clambering cage, chronograph.
After 5 min of adaptation, the behaviors of the mice at 10-11, 20-21, 30-31 min after the injection of apomorphine were observed.
In series [2] the target is D3 receptor (Homo sapiens (Human), UniProt P35462). Kind of series: D3 receptor binding assay ([3H]-Spiperone, HEK-293 cells). The conditions noted are these: test compound final concentration 10 μmol/L. The protocol:
After the cells were centrifuged at 1000 rpm for 5 min, the supernatant was discarded, and the cell pellet was collected and stored in a −20° C. fridge for reservation. It was re-suspended with Tris-Cl (pH 7.4) in the assay.
Tris was divided into aliquots by Genetimes Technology Inc.
Competitive binding test for receptors: 20 μl of each of the test compounds and 20 μl of the radioactive ligand together with 160 μl of the receptor proteins were added into the reaction tubes, and the final concentrations of the test compound and the positive drug were all 10 μmol/L. After 50 min of incubation in 30° C. water bath, the tubes were immediately moved to ice bath to terminate the reactions. GF/C glass fiber filter papers were used for rapid sucking filtration on a Millipore cell sample collector, elution buffer (50 mM Tris-HCl, PH 7.4) was applied for 3 ml×3 times, and microwave was applied for 4-5 min for drying. The filter papers were moved into 0.5 ml centrifuge tubes, and 500 μl of lipid-soluble scintillation solution was added. The tubes were allowed to stand still for over 30 min in dark, and the intensities of radioactivity were measured by a counter.

The test system of series [3] is MK-801 high activity mice. The experiment in a line: MK-801 induced high activity in mice. Type of series: in vivo. The conditions noted are these: for Total moving distance: MK-801 high activity mice, within 90 min; for ED50: Mus musculus, po, read-out: MK-801 induced high activity ED50; for improvement of MK-801 induced high activity (in words): compared to the model group. As for the experimental part: Ascorbic acid was provided by Sinopharm Chemical Reagent Co. Ltd.
MK-801 was produced by Sigma Company, USA; the formulation method: 0.1% vitamin C was used to formulate a 1 mg/ml solution.
Tween 80, with the concentration of 10%.
Mice with qualified body weight were selected, and randomly divided into blank group, model group, positive control group (risperidone group) and drug group. […] 1 H after the administration, 0.1% of ascorbic acid was intraperitoneally injected to the blank group at 0.1 ml/10 g; and the model group, the positive control group (30 min) and the drug group were intraperitoneally injected the MK-801 solution at 0.1 mg/kg. Subsequently, the spontaneous activities of the mice of each group in 90 min were measured.

Series [4] is described as follows: Catalepsy assay in mice. The series is classed as in vivo. Conditions: both sexes, Kunming (KM), mouse, in vivo; po, mice. The protocol: (§1) The durations for the mice to maintain the posture with the two forepaws on the bars were recorded, and 30 s of spasticity without moving was considered as the positive response. In the case the forepaws of the mice were not put down persistently, the observation was terminated at 60 s. The numbers of animals with positive response in each of the compound dosage groups were counted.

Series [5] has as its system KM mice (catalepsy). Kind of series: Catalepsy assay in mice. The series is classed as in vivo. The protocol: as §1
Series [6] has as its target 5HT2A receptor (Rattus norvegicus (Rat), UniProt P14842). The experiment in a line: 5HT2A receptor assay ([3H]-Ketanserin, rat brain mantle membrane). Type of series: binding. Conditions: values marked a = IC50.
In series [7] the target is 5HT1A receptor (Rattus norvegicus (Rat), UniProt P19327). Kind of series: 5HT1A receptor binding assay (3H-8-OH-DPAT, rat brain mantle membrane). The conditions noted are these: values marked a = IC50. The protocol: Incubation at 37° C. was conducted for 10 min, the weight of the tubes were adjusted using a balance after incubation. […] Centrifugation was conducted and repeated 3 times.
Sequence of 5HT1A receptor (P19327 whole entry): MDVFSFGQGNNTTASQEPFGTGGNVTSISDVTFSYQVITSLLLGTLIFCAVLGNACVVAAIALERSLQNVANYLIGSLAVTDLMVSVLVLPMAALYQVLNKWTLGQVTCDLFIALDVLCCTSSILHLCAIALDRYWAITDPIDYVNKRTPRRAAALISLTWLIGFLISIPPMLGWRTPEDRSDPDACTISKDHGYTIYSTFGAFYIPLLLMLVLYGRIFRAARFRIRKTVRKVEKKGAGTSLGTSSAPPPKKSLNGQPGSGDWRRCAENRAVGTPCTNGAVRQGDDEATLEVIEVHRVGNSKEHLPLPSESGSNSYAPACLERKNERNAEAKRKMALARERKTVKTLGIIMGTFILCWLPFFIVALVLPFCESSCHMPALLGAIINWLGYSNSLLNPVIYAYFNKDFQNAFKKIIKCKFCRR

Series [8] addresses 5HT2C (Rattus norvegicus (Rat), UniProt P08909). Kind of series: 5HT2C receptor binding assay ([3H]-mesulergine, rat brain mantle membrane). The conditions noted are these: test compound final concentration 10^-5 M. As for the experimental part:
Incubation at 37° C. was conducted for 10 min, the weight of the tubes were adjusted using a balance after the incubation. […] Centrifugation was conducted (repeated 3 times).

The test system of series [9] is four receptors (D2, D3, 5-HT1A and 5-HT2A). Kind of series: In vitro receptor binding assays, summary over four receptors. Conditions: in vitro assay.
The nature of series [10]: in vivo. Conditions: both sexes, mouse, in vivo; po, single intragastric administration in mice; read-out: LD50. As for the experimental part:
(§2) KM mice (half male and half female) were randomly divided into several groups (with 2-5 mice in each group), which were respectively the 2000 mg/kg groups for each compound, and the solvent group. 0.2 ml/10 g were administered intragastrically. The death of the animals in 3 days were observed. (In the case 3 or more animals survived in 3 days without notable abnormity in their life states, the observation was continued until the assay was completed in 7 days. In the case 3 or more animals died in 3 days, the median lethal dose method was used to determine the LD50).
(§3) KM mice (half male and half female) were randomly divided into several groups (with 4 mice in each group), which were respectively the 1500 mg/kg, 1000 mg/kg, 500 mg/kg groups for each compound, and the solvent group. 0.2 ml/10 g were administered intragastrically, and the death of the animals in 1-3 days were observed.

The target of series [11] is D2 receptor (Rattus norvegicus (Rat), UniProt P61169). Kind of series: D2 receptor binding assay (3H-Spiperone, rat brain striatum membrane). Conditions: read-out: D2 Inhibition %.
Sequence of D2 receptor (P61169 whole entry): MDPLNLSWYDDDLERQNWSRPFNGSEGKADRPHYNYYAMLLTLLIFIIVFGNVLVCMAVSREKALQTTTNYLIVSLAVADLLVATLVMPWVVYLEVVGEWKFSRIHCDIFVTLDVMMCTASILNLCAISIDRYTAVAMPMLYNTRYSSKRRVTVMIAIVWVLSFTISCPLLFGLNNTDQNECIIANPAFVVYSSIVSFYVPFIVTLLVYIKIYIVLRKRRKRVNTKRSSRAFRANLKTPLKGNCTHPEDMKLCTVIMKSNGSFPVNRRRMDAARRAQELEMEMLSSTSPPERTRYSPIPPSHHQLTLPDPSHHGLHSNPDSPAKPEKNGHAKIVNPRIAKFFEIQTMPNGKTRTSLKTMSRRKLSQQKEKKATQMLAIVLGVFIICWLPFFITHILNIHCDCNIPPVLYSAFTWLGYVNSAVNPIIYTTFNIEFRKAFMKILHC
Procedure: Brain striatum was rapidly taken, and 2 brain striatums were combined into a centrifuge tube, to which 3 ml of buffer (0.05 M Tris-HCl buffer, containing NaCl 120 mM, KCl 5 mM, MgCl2 1 mM, CaCl2 1 mM) was added, homogenization was conducted for 3-4 s at level 4 for four times, and then 5 ml of buffer was then added. The weight of the homogenized tubes were adjusted using a balance, and centrifugation was conducted at 12000 r, 4° C. for 20 min. The supernatant was discarded, and 3 ml of buffer was added (0.05 M Tris-HCl buffer, containing NaCl 120 mM, KCl 5 mM, MgCl2 1 mM, CaCl2 1 mM). Vortex mixer was used for blending, and then 5 ml of buffer was added (0.05 M Tris-HCl buffer, containing NaCl 120 mM, KCl 5 mM, MgCl2 1 mM, CaCl2 1 mM). Centrifugation was conducted and repeated 3 times. After the centrifugations, the supernatant was discarded, and the pellets were stored at −80° C. for future use.
Beckman LS-6500 Multi-function Liquid Scintillation Counter was used.
(1) The prepared membrane was first applied with appropriate amount of buffer (0.05 M Tris-HCl buffer, containing NaCl 120 mM, KCl 5 mM, MgCl2 1 mM, CaCl2 1 mM), and homogenizer was used for evenly dispersing. 15 tubes were mixed into a 100 ml container, and appropriate amount of homogenized liquid was added to give 50 ml of membrane suspension, which was reserved for future use.
(2) 100 μL of membrane preparation and 100 μL of buffer (0.05 M Tris-HCl buffer, containing NaCl 120 mM, KCl 5 mM, MgCl2 1 mM, CaCl2 1 mM) were added into each reaction tube.
(3) 100 μL of homogenized liquid was added into the total binding tube (TB), 100 μL of Butaclamol (final concentration 10^−5 M) was added into the non-specific binding tube (NB), and 100 μL of the test compound (final concentration 10^−5 M) was added into the specific binding tube (SB) for each compound.
(5) Each of the reaction tubes was incubated at 37° C. for 20 min. After the reaction was completed, the bound ligands were rapidly filtered under reduced pressure, and the ice-chilled assay buffer was used for adequate washing. The filter was taken out and put into a 3 ml scintillation vial, and 2 ml of toluene scintillation solution was added and blended.
(6) The scintillation vials were put into Liquid Scintillation Counter for counting. Inhibitory rate(1%)=[(Total binding tube cpm−compound cpm)/(Total binding tube cpm−non-specific binding tube cpm)]×100%
Each assay for the compounds was conducted in duplicate.
The test system of series [12] is KM mice. Kind of series: in vivo. Conditions: po, single intragastric administration in mice. The protocol:
as §2, §3

Sequence of D3 receptor (P35462 whole entry): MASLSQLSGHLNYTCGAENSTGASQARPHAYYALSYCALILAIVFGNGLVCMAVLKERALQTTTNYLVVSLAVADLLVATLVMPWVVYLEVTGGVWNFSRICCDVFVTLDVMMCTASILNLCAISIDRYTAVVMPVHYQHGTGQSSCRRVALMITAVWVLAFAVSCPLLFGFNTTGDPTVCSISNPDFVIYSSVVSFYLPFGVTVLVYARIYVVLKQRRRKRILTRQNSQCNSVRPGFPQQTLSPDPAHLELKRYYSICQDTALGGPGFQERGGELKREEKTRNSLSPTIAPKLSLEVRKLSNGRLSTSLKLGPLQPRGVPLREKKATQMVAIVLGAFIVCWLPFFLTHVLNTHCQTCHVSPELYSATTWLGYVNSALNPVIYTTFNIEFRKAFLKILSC
Sequence of 5HT2A receptor (P14842 whole entry): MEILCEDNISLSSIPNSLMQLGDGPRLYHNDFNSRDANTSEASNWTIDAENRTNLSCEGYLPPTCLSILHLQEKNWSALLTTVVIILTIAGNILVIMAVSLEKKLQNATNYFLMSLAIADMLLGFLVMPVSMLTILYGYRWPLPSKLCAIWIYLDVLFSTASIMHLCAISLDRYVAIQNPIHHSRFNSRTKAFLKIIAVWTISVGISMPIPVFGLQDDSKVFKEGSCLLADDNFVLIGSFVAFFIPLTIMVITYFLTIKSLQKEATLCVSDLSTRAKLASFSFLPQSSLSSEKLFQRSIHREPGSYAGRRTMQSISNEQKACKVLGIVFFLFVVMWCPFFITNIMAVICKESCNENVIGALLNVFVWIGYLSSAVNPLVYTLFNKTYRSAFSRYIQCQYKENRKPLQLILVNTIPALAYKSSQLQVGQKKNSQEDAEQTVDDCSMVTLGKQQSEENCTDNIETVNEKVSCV
Sequence of 5HT2C (P08909 33-460 limits assumed): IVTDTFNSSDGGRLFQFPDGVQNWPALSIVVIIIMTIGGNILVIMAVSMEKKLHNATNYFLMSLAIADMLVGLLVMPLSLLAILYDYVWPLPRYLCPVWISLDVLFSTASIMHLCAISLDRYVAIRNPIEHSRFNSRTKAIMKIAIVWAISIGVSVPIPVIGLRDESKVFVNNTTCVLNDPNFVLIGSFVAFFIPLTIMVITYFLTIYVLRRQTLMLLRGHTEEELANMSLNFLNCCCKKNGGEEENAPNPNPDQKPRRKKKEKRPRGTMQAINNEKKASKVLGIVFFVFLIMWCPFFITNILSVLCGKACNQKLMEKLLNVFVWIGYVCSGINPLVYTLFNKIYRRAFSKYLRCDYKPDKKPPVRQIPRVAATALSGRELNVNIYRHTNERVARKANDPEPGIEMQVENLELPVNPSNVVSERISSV

Consider `Fc1ccc2c(C3CCN(CCCSc4nnc(-c5cccc6ccccc56)o4)CC3)noc2c1` [Compound 12], for which the ED50 in [1] came out at 4.03 mg/kg; in series [3] (mice) it was 15 mg/kg; in [4] it was 300 mg/kg. Moreover, the “improvement of apomorphine induced clambering symptoms (in words)” value in series [1] is given as “effectively improve”. The inhibition at 10 µM in [2] was 100%; in [8] it was 60.6%; in series [11], 98.4%. For the same compound, the Total moving distance in [3] (10 mg/kg intragastric) was 20521.27 ± 7898.02 cm; in [3] (20 mg/kg intragastric), 12936.50 ± 3627.24 cm; in series [3] (30 mg/kg intragastric) it was 16163.49 ± 7769.48 cm; in series [3] (50 mg/kg intragastric), 10298.82 ± 4269.95 cm; in series [3] (100 mg/kg intragastric) it was 5665.86 ± 1799.20 cm. Moreover, in series [3], the “improvement of MK-801 induced high activity (in words)” value was “significantly improve”. For the same compound, in series [5] (at effective dosage), the “EPS at effective dosage (in words)” value was “did not cause EPS”. Moreover, the catalepsy/MK-801 in series [5] (ratio of ED50 values) is 20.00. The catalepsy/apomorphine in series [5] (ratio of ED50 values) amounted to 74.44. Further, the pIC50 was 6.91 in [6] and 6.76 in series [7]. The “affinities to D2, D3, 5-HT1A and 5-HT2A receptors (in words)” value in series [9] is recorded as “relatively stronger affinities”. For the same compound, the “affinity compared to aripiprazole (in words)” value in series [9] is listed as “equivalent to aripiprazole”. Also, the LD50 in series [10] is over 2000 mg/kg.
Take `Cc1nc2n(c(=O)c1CCN1CCC(c3noc4cc(F)ccc34)CC1)CCCC2` [risperidone, reference compound]: in [1], the ED50 came out at 0.02 mg/kg and the “improvement of apomorphine induced clambering symptoms (in words)” value was “effectively improve”. In series [3], the ED50 was found to be 0.01 mg/kg and the “improvement of MK-801 induced high activity (in words)” value is on record as “significantly improve”. Also, the LD50 in series [12] turned out to be 82.1 mg/kg. Besides, in series [10], the LD50 came to 82.1 mg/kg.
